Columns and labels:
solubility in water = format: physicochemical
[1] = physical (crystal form) stability of the solid; format: physicochemical; conditions: for stability of the crystal form: ambient condition

Row | Structure (SMILES) | solubility in water (in words) (solubility in water) | solubility (solubility in water) [mg/mL] | stability of the crystal form [1] | crystal form change on heating ([1]; heated to above 40° C. under very dry nitrogen flow)
1 | NC(CC(=O)N1CCn2c(nnc2C(F)(F)F)C1)Cc1cc(F)c(F)cc1F (stereo not drawn) [4-oxo-4-[3-(trifluoromethyl)-5,6-dihydro[1 ,2,4]triazolo[4,3-a]pyrazin-7(8H)-yl]-1-(2,4,5-trifluorophenyl) butan-2-amine] | high solubility in water | – | – | –
2 | N[C@@H](CC(=O)N1CCn2c(nnc2C(F)(F)F)C1)Cc1cc(F)c(F)cc1F [(2R)-4-oxo-4-[3-(trifluoromethyl)-5,6-dihydro[1,2,4]triazolo[4,3-a]pyrazin-7(8H)-yl]-1-(2,4,5-trifluorophenyl)butan-2-amine dihydrogenphosphate monohydrate] | high solubility in water | ~72 | stable under ambient condition | convert to dehydrated monohydrate
3 | N[C@@H](CC(=O)N1CCn2c(nnc2C(F)(F)F)C1)Cc1cc(F)c(F)cc1F.O=P(O)(O)O [Dehydrated monohydrate] | – | – | converted back to monohydrate | –
